The assay has as its target hFXR (Homo sapiens (Human), UniProt Q96RI1). Briefly: In Vitro FXR Assay (TK), luciferase reporter in transfected CV-1 cells. In kind it is cell-based. The following applies: TK-ECRE-luc reporter, hFXR/hRXR, 18 hrs, maximum efficacy <25% of Fexaramine control classified as '+'. How it is done:
CV-1 cells were seeded at a density of 2,000,000 cells in a T175 flask with DMEM+10% charcoal double-stripped FBS and incubated at 37° C. in 5% CO2 for 18 h (O/N).
After 18 h of incubation, the medium in the T175 flask was changed with fresh DMEM+10% charcoal super-stripped serum. In a polypropylene tube, 2500 μL OptiMEM (Life Technologies, Cat #31985-062) was combined with expression plasmids for hFXR, hRXR, TK-ECRE-luc and pCMX-YFP. The tube was then briefly vortexed and incubated at room temperature for 5 minutes. Transfection reagent (X-tremeGENE HP from Roche, Cat #06 366 236 001) was added to the OptiMEM/plasmid mixture vortexed and incubated at room temperature for 20 minutes. Following incubation, the transfection reagent/DNA mixture complex was added to cells in the T175 flask and the cells were incubated at 37° C. in 5% CO2 for 18 h (O/N).
Compounds were serially diluted in DMSO and added to transfected CV-1 cells. The cells were then incubated for 18 hrs. The next day cells were lysed and examined for luminescence.
In general terms: Reporter assays use an easily measured gene product as a stand-in for the process of interest.

hFXR, sequence (Q96RI1 whole entry): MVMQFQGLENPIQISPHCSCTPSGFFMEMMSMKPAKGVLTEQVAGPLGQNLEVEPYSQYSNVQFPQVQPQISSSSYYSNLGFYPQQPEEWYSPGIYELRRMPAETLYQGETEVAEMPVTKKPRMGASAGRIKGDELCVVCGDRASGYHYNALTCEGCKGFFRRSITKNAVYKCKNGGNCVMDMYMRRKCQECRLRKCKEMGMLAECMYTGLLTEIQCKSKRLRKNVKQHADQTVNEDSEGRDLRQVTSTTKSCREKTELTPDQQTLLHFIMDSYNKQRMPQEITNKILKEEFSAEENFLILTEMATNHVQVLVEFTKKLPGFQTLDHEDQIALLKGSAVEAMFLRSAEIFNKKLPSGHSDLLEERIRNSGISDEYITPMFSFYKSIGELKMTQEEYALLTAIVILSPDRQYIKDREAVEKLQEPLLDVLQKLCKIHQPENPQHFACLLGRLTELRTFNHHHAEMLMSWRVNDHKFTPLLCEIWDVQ
hFXR, sequence (P19793 whole entry partner): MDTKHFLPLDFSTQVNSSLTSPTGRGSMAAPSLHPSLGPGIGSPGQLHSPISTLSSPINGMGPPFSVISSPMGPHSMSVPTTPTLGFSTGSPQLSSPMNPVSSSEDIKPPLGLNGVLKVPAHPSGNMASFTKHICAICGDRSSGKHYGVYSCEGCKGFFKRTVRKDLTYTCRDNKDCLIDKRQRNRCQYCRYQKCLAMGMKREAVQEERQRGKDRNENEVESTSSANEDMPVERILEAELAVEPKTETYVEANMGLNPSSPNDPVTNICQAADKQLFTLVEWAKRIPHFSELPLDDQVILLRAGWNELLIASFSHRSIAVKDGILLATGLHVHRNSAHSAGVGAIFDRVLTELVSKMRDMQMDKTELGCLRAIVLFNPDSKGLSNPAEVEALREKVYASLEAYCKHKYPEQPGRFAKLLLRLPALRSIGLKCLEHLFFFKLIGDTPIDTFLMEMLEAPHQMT

Consider `COC(=O)/C=C/c1ccnc(N(Cc2ccc(-c3ccc(N(C)C)nc3)cc2)C(=O)C2CCCCC2)c1` [Compound 5, (E)-Methyl 3-(2-(N-(4-(6-(dimethylamino)pyridin-3-yl)benzyl)cyclohexane-carboxamido)pyridin-4-yl)acrylate], for which the EC50 (commonly the concentration that produces a half-maximal response) lay in the range of 1000 to 10000 nM.

`COC(=O)c1cc2cccc(N(Cc3ccc(-c4ccc(N(C)C)cc4)cc3)C(=O)C3CCCCC3)c2[nH]1` [Compound 10, Methyl 7-(N-((4′-(dimethylamino)-[1,1′-biphenyl]-4-yl)methyl)cyclohexanecarboxamido)-1H-indole-2-carboxylate]: the EC50 was at least 10000 nM.

`COC(=O)c1cc2c(N(Cc3ccc(-c4ccc(N(C)C)cc4)cc3)C(=O)C3CCCCC3)cccc2[nH]1` [Compound 11, Methyl 4-(N-((4′-(dimethylamino)-[1,1′-biphenyl]-4-yl)methyl)cyclohexanecarboxamido)-1H-indole-2-carboxylate] showed an EC50 of at least 10000 nM.

Take `COC(=O)c1cc2cccc(N(Cc3ccc(-c4ccc(N(C)C)cc4)cc3)C(=O)C3CCCCC3)c2s1` [Compound 12, Methyl 7-(N-((4′-(dimethylamino)-[1,1′-biphenyl]-4-yl)methyl)cyclohexanecarboxamido) benzo[b]thiophene-2-carboxylate]: the EC50 lay within 1000 to 10000 nM.

On to `COC(=O)c1ccc2c(N(Cc3ccc(-c4ccc(N(C)C)cc4)cc3)C(=O)C3CCCCC3)nccc2c1` [Compound 13, Methyl 1-(N-((4′-(dimethylamino)-[1,1′-biphenyl]-4-yl)methyl)cyclohexanecarboxamido) isoquinoline-6-carboxylate], for which the EC50 is at most 1000 nM.

Regarding `CCOC(=O)c1cnc2c(N(Cc3ccc(-c4ccc(N(C)C)cc4)cc3)C(=O)C3CCCCC3)cccc2c1` [Compound 14, Ethyl 8-(N-((4′-(dimethylamino)-[1,1′-biphenyl]-4-yl)methyl)cyclohexanecarboxamido) quinoline-3-carboxylate], the EC50 was in the range of 1000 to 10000 nM.

Consider `COC(=O)c1ccc2ccc(N(Cc3ccc(-c4ccc(N(C)C)cc4)cc3)C(=O)C3CCCCC3)cc2c1` [Compound 15, Methyl 7-(N-((4′-(dimethylamino)-[1,1′-biphenyl]-4-yl)methyl)cyclohexanecarboxamido)-2-naphthoate], for which the EC50 was at least 10000 nM.

For `COC(=O)c1cc(N(Cc2ccc(-c3ccc(N(C)C)cc3)cc2)C(=O)C2CCCCC2)c2ccccc2c1` [Compound 16, Methyl 4-(N-((4′-(dimethylamino)-[1,1′-biphenyl]-4-yl)methyl)cyclohexanecarboxamido)-2-naphthoate], the EC50 was at least 10000 nM.

For `COC(=O)c1ccc2c(N(Cc3ccc(-c4ccc(N(C)C)cc4)cc3)C(=O)C(C)(C)C)nccc2c1` [Compound 17, Methyl 1-(N-((4-(dimethylamino)-[1,1′-biphenyl]-4-yl)methyl)pivalamido)isoquinoline-6-carboxylate], the EC50 was in the range of 1000 to 10000 nM.

`COC(=O)/C=C/c1ccnc(N(C[C@H]2CC[C@H](c3ccc(OC)c(C)c3)CC2)C(=O)C2CCCCC2)c1` [Compound 18, (E)-Methyl 3-(2-(N-((trans-4-(4-methoxy-3-methylphenyl)cyclohexyl)methyl)cyclohexanecarboxamido)pyridin-4-yl)acrylate]: the EC50 is at most 1000 nM.

`COC(=O)c1ccc2c(N(Cc3ccc(-c4ccc(OC)c(C)c4)cc3)C(=O)CC(C)(C)C)nccc2c1` [Compound 19, Methyl 1-(N-((4′-methoxy-3′-methyl-[1,1′-biphenyl]-4-yl)methyl)-3,3-dimethylbutanamido)isoquinoline-6-carboxylate] showed an EC50 of at most 1000 nM.

`COC(=O)c1ccc2c(N(Cc3ccc(-c4ccc(OC)c(C)c4)cc3)C(=O)C3CCCCC3)nccc2c1` [Compound 20, Methyl 1-(N-((4′-methoxy-3′-methyl-[1,1′-biphenyl]-4-yl)methyl)cyclohexanecarboxamido) isoquinoline-6-carboxylate] had an EC50 of at most 1000 nM.

As for `CCOC(=O)c1ccc2c(N(Cc3ccc(-c4ccc(OC)c(C)c4)cc3)C(=O)C3CCCCC3)nccc2c1` [Compound 21, Ethyl 1-(N-((4′-methoxy-3′-methyl-[1,1′-biphenyl]-4-yl)methyl)cyclohexanecarboxamido) isoquinoline-6-carboxylate], the EC50 was at most 1000 nM.

For `COc1ccc(-c2ccc(CN(C(=O)C3CCCCC3)c3nccc4cc(C(=O)OC(C)C)ccc34)cc2)cc1C` [Compound 22, Isopropyl 1-(N-((4′-methoxy-3′-methyl-[1,1′-biphenyl]-4-yl)methyl)cyclohexanecarboxamido) isoquinoline-6-carboxylate], the EC50 is at most 1000 nM.

As for `CCOC(=O)c1ccc2c(N(Cc3ccc(-c4ccc(OC)c(C)c4)cc3)C(=O)C3CCCCC3)cccc2n1` [Compound 23, Ethyl 5-(N-((4′-methoxy-3′-methyl-[1,1′-biphenyl]-4-yl)methyl)cyclohexanecarboxamido) quinoline-2-carboxylate], the EC50 lay within 1000 to 10000 nM.

In turn, `COC(=O)c1ccc2c(N(Cc3ccc(-c4ccc(OC)c(C#N)c4)cc3)C(=O)CC(C)(C)C)nccc2c1` [Compound 24, Methyl 1-(N-((3′-cyano-4′-methoxy-[1,1′-biphenyl]-4-yl)methyl)-3,3-dimethylbutanamido)isoquinoline-6-carboxylate] showed a concentration for a half-maximal effect (EC50) of at most 1000 nM.

`COC(=O)c1ccc2c(N(Cc3ccc(-c4ccc(OC)c(C)c4)cc3)C(=O)C3CCCCCC3)nccc2c1` [Compound 25, Methyl 1-(N-((4′-methoxy-3′-methyl-[1,1′-biphenyl]-4-yl)methyl)cycloheptanecarboxamido) isoquinoline-6-carboxylate] had an EC50 of at most 1000 nM.

Compound `COC(=O)c1ccc2c(N(Cc3ccc(-c4ccc(OC)c(C)c4)c(C#N)c3)C(=O)CC(C)(C)C)nccc2c1` [Compound 26, Methyl 1-(N-((2-cyano-4′-methoxy-3′-methyl-[1,1′-biphenyl]-4-yl)methyl)-3,3-dimethylbutanamido)isoquinoline-6-carboxylate] had an EC50 of at most 1000 nM.

For `COC(=O)c1ccc2c(N(Cc3ccc(-c4ccc(OC)c(C)c4)cc3)C(C)=O)nccc2c1` [Compound 27, Methyl 1-(N-((4′-methoxy-3′-methyl-[1,1′-biphenyl]-4-yl)methyl)acetamido)isoquinoline-6-carboxylate], the EC50 was at least 10000 nM.

Compound `COC(=O)c1ccc2c(N(Cc3ccc(-c4ccc(OC)c(C)c4)cc3)C(=O)C(C)C)nccc2c1` [Compound 28, Methyl 1-(N-((4′-methoxy-3′-methyl-[1,1′-biphenyl]-4-yl)methyl)isobutyramido) isoquinoline-6-carboxylate] yielded an EC50 of at most 1000 nM.

In turn, `COC(=O)c1ccc2c(N(Cc3ccc(-c4ccc(OC)c(F)c4F)cc3)C(=O)CC(C)(C)C)nccc2c1` [Compound 29, Methyl 1-(N-((2′,3′-difluoro-4′-methoxy-[1,1′-biphenyl]-4-yl)methyl)-3,3-dimethylbutanamido)isoquinoline-6-carboxylate] had an EC50 of at most 1000 nM.

The compound `COC(=O)c1ccc2c(N(Cc3ccc(-c4ccc(C)c(C#N)c4)cc3)C(=O)CC(C)(C)C)nccc2c1` [Compound 30, Methyl 1-(N-((3′-cyano-4′-methyl-[1,1′-biphenyl]-4-yl)methyl)-3,3-dimethylbutanamido)isoquinoline-6-carboxylate] had an EC50 of at most 1000 nM.

The values are drawn from US10377717B2, “Farnesoid X receptor agonists and uses thereof” (Metacrine, Inc., priority 2015, dated 2019).
